In patent US20070105892A1, “Amidino compounds as cysteine protease inhibitors” (AXYS Pharmaceuticals, Inc., priority 2003, published 2007):

melting point: 202 to 204 °C
SMILES: CCc1noc(C(=O)[C@H](CC)NC(=O)[C@H](CC2(C)CCCC2)NC2=NS(=O)(=O)c3ccccc32)n1 [Example 1]
